The source of these data is patent publication US20200002327A1, “THERAPEUTIC AGENT FOR ANXIETY DISORDERS” (KYOWA HAKKO KIRIN CO., LTD., priority 2009, published 2020).

In assay [1] the test system is rats. The experiment in a line: Yohimbine-induced anxiety-like behavior in rat social interaction test. It counts as in vivo. The protocol: The male SD rats (weighing 201.8 to 285.6 g; Charles River Japan Inc.)were used in this study. On the day of behavioral evaluation, the animals were acclimatized to the test environment from 4 hours before the start of the experiment. Sixty minutes after oral administration of a vehicle (0.5 w/v % MC solution) or a test compound (prepared in suspension in 0.5 w/v % MC solution to obtain a dosing concentration of 0.5 mL per 100 g of rat body weight), two rats were allowed to meet each other in an acrylic box (50×50×50 cm). The total time of social interaction behaviors (sniffing, following, grooming and the like) during monitoring for 10 minutes immediately after meeting (between-rats interaction time) were measured with a stopwatch. Using the method of Test Example 4, the effect of a compound on the anxiety induced with administration of an anxiogenic substance was examined. Yohimbine (adrenalin α2 receptor antagonist) is known as one of the anxiogenic substance. It is thought that locus coeruleus hyperactivity that accompanies α2 receptor antagonizing action is contributory to the anxiety-inducing action of Yohimbine. Anxiety symptoms that develop with administration of Yohimbine to healthy persons were reported to be similar to panic disorders, in the pathophysiology of which abnormal locus coeruleus activity is considered to be largely involved. […]

In assay [2] the test system is rats. The experiment in a line: mCPP-induced anxiety-like behavior in rat social interaction test. The format is in vivo. The protocol: (§1) The male SD rats (weighing 201.8 to 285.6 g; Charles River Japan Inc.)were used in this study. On the day of behavioral evaluation, the animals were acclimatized to the test environment from 4 hours before the start of the experiment. Sixty minutes after oral administration of a vehicle (0.5 w/v % MC solution) or a test compound (prepared in suspension in 0.5 w/v % MC solution to obtain a dosing concentration of 0.5 mL per 100 g of rat body weight), two rats were allowed to meet each other in an acrylic box (50×50×50 cm). The total time of social interaction behaviors (sniffing, following, grooming and the like) during monitoring for 10 minutes immediately after meeting (between-rats interaction time) were measured with a stopwatch.
Meanwhile, meta-chlorophenylpiperadine hydrochloride (mCPP) is an anxiogenic substance having a 5-HT2 receptor stimulation action. It was reported that mCPP induced anxiety symptoms in healthy subjects and aggravated the symptoms of generalized anxiety disorder in humans. The mCPP-induced anxiety response is an experimental model that well reflects anxiety (for example, generalized anxiety disorder) caused by abnormal signaling especially via 5-HT2 receptors.
Next, the effect on mCPP-induced anxiety was examined. […]

Assay [3] relates to male SD rats. The experiment in a line: Conditioned fear stress (CFS) test in rats. It counts as in vivo, rat. To be noted: 0.3 mg/kg, 60 min before retention trial. An excerpt: In this test (Folia Pharmacologica Japonica, 113, p. 113 (1999)), the influences of psychological stress resulting from past aversion experience on living organisms can be measured as behavioral suppression (freezing reaction) or autonomic nervous system hyperactivity (increases in respiratory rate and blood pressure).
The male SD rats (weighing 140.2 to 320.0 g; Charles River Japan Inc.) and a contextual learning test system were used in this study. The experimental apparatus is consisted of a soundproof box, and a test cage (20×20×25 cm), a shock generator, a controller, an external monitor and PC analysis system, which were placed in the soundproof box. The test cage has stainless bars on the floor at 1-cm intervals. A scrambled electric current was generated from the shock generator using 35 a command of the special program . The inside of the soundproof box was equipped with a speaker. A buzzer sound of 65 dB was generated via the controller using a command of the special program. The animal behavior within the test cage was recorded with a CCD camera, which was positioned on the ceiling of the soundproof box. […] The percentage of freezing behavior was determined by (Freezing time/Test time)×100. […] According to the same schedule as that on the previous day, only a buzzer sound was generated six times and the duration of freezing behavior was measured. […]

The test system of assay [4] is male SD rats. Put plainly: Rat social interaction test. The format is in vivo. To be noted: 0.3 mg/kg oral.
Excerpt: It is known that these social interactions increase with administration of existing anxiolytics. This test is thought as an animal model of social phobia or generalized anxiety disorders because it is consider that contradictory social environments between two rats cause stress (Eur. J. Pharmacol., 408, p. 41 (2000)).
as §1

In assay [5] the test system is male ICR mice. The experiment in a line: Marble burying behavior test in mice. The format is in vivo. The note with it: 3 mg/kg oral, 1 hour before test; marbles counted after 30 minutes; significant. An excerpt: This test is known as one of the test systems for anxiolytics (Folia Pharmacologica Japonica, 126, p. 94 (2005)). Marble-burying behavior is a behavior of the mouse to bury marbles in spread planer bedding on which the marbles were placed, and is suppressed, without being accompanied by motor inhibition, by selective serotonin reuptake inhibitors (SSRIs). Since the behavior of the mouse to attempt to cover and bury harmless marbles in planer bedding is apparently similar to compulsions in patients with obsessive-compulsive disorders that are repeated while they recognize them as being unreasonable, and also since SSRIs are effective as therapeutic drugs for obsessive-compulsive disorders, and for other reasons, the marble burying behavior is getting positioned as an animal model of obsessive-compulsive disorder
The male ICR mice (weighing 27.6 to 42.9 g; Japan SLC, Inc.) were used in this study. […] At 30 minutes later, the number of marbles more than half-buried in the planer was counted. […]
The effects of the drug are expressed as the actually measured number of buried marbles and the inhibition rate calculated by the following equation.

The subject of assay [6] is male Wistar rats. Put plainly: Vogel conflict test in rats. It counts as in vivo, rat. The note with it: 0.03 mg/kg oral, 60 minutes before; 5 min session; vehicle 6.1±0.8 times; P=0.003846, Steel-test. The protocol:
This test is to measure drinking counts (number of shocks during drinking) when an electric shock is applied to a water-deprived rat at each time that the rat drinks water. Under this condition, a rat is thought to be placed under a state of conflict between the motivation to drink (positive reinforcing factor) and the aversion to receiving an electric shock (negative reinforcing factor, punishment). When anxiolytics are administered to a rat, anxiety about punishing stimuli is suppressed and behavior in an attempt to take a positive reinforcer is observed. This test is thought to be an animal model of generalized anxiety disorders (Folia Pharmacologica Japonica, 115, p. 5 (2005), Japanese Journal of Clinical Psychopharmacology, 9, p. 2389 (2006)).
The male Wistar rats (weighing 148.4 to 211.7 g; Japan SLC, Inc.) and an operant experimental apparatus were used in 20 this study. The chamber consisted of a soundproof box, and a test cage (25×30×25 cm), a shock generator, a controller, a licking sensor and PC analysis system placed in the soundproof box. […] Current conduction by licking (drinking) was detected with the licking senor and measured with the PC analysis system via the controller. […] Twenty nozzle licks were counted as one drinking response and drinking frequency (drinking count) was determined (pre-value). […]

For assay [7], the system named is male SD rats. The experiment in a line: Elevated plus maze test in rat. The note with it: 0.1 mg/kg oral. The format is in vivo. The text has this:
In this test, a conflict arises between rodent's exploratory drive and an innate aversion to bright open new spaces (open arms), accordingly, it has been reported that drugs having anti-anxiety activity increase the time spent in the open arms and the number of open arm entries, while anxiogenic substance decreases these parameters (Japanese Journal of Clinical Psychopharmacology, 9, p. 2389 (2006)). This test is thought to be an animal model of generalized anxiety disorders (Folia Pharmacologica Japonica, 115, p. 5 (2005), Japanese Journal of Clinical Psychopharmacology, 9, p. 2389 (2006)).
The male SD rats (weighing 133.8 to 260.2 g; Charles River Japan Inc.) were used in this study. An apparatus was used wherein two open arms (50×10 cm) extending on the same line from a 10 cm-square central area and two enclosed arms (50×10 cm) surrounded by a wall of 40 cm height are perpendicularly crossing. Sixty minutes after oral administration of a vehicle (0.5 w/v % MC solution) or a test 20 compound (a suspension in 0.5 w/v % MC solution prepared to obtain a dosing concentration of 0.5 mL per 100 g of rat body weight), each rat was placed in the center of the elevated plus maze with its head facing toward the enclosed arm and immediately observed for its behavior for 5 minutes. The rat behavior on the maze was recorded with a digital video camera positioned on the ceiling of the laboratory. The times spent and number of entries in the open arms, enclosed arms and central platform, and distance travelled were determined using analysis software. The time spent in the open arms, percentage of open arm entries (ratio of the number of entries in the open arms to the total number of entries in the open and enclosed arms) and total distance travelled on the maze during the monitoring period were determined to evaluate the influences of the test compound.

Consider `COC(=O)[C@@H]1[C@H]2C[C@H]3c4[nH]c5ccccc5c4CCN3C[C@@H]2CC[C@@H]1O` [Yohimbine, reference compound], for which the “between-rats interaction time (Yohimbine alone)” value in assay [1] (Yohimbine 5 mg/kg oral, 30 minutes before measurement, vehicle 90.6±7.1 seconds, P=0.0010, Aspin-Welch test) is 57.6 ± 3.4 s.

Regarding `Cc1ccc(C(=O)Nc2nc(-c3ccco3)c(C(=O)C3CCOCC3)s2)cn1` [compound (IC)], in assay [2] (0.3 mg/kg, 30 minutes before mCPP (0.5 mg/kg), mCPP alone 32.5±3.6 seconds, P<0.001, Dunnett test), the “between-rats interaction time (improvement of reduction by mCPP)” value amounted to 62.4 ± 6.9 s. The compound further gave a percentage of freezing behavior in the post-tone period in assay [3] (vehicle 59.8±9.6, P=0.01559, Dunnett test) of 23.4 ± 8.1%. Further, in assay [3] (vehicle 90.2±2.6, P=0.02867, Steel test), the percentage of freezing behavior in the with-tone period is 57.1 ± 9.9%. In addition, the between-rats interaction time in assay [4] (60 min before, 10 min monitoring, vehicle 85.2 ±7.6 seconds, P=0.01545, Dunnett test) is 119.3 ± 9.0 s. Further, the spontaneous activity in assay [4] (vehicle 8635.3 ±506.4 counts, P<0.001, Dunnett test) worked out at 12922.7 ±646.8 counts. The “% inhibition of mouse marble burying behavior” value in assay [5] is reported as 73.7%. Moreover, the “number of electric shocks received (drinking count, test-punished session)” value in assay [6] is on record as 12.7±1.7 times. In addition, the “between-rats interaction time (improvement of reduction by Yohimbine)” value in assay [1] (0.03 mg/kg, 30 minutes before Yohimbine (5 mg/kg), Yohimbine alone 57.6±3.4 seconds, P=0.00019, Steel test) was determined as 90.3 ± 5.0 s. In addition, the “time spent in the open arms” value in assay [7] (60 min before, 5 minutes, vehicle 21.6 ±7.4 seconds, P=0.01687, Steel test) was 61.6 ± 10.9 s. Moreover, in assay [7] (vehicle 15.5±3.0%, P=0.04759, Steel test), the “percentage of open arm entries” value worked out at 33.4±6.3%. In assay [7] (vehicle 2521.97±95.34 cm, not affected), the “total distance travelled on the maze” value amounted to 2414.83±102.13 cm.

With `Cl.Clc1cccc(N2CCNCC2)c1` [mCPP, meta-chlorophenylpiperadine hydrochloride, reference compound], the “between-rats interaction time (mCPP alone)” value in assay [2] (mCPP 0.5 mg/kg oral, 30 minutes before measurement, vehicle 83.4±5.1 seconds, P<0.001, Student's t-test) was found to be 32.5 ± 3.6 s.
